Laboratory results: patent publication US12344623B2, “Thiazolopyridine derivatives as adenosine receptor antagonists” (Merck Patent GmbH, priority 2019, dated 2025)
Where two headings read alike, the source gives them in different places.

Columns and labels:
Assay type in all cases: cell-based
[1] = molecular target: T1, human A2B receptor (Homo sapiens, UniProt P29275); assay: Functional A2B receptor activity, recombinant HEK293 cells, cAMP (HTRF), agonist NECA; conditions: read-out: Functional A2B receptor activity, HEK293, cAMP, IC50
T1 construct: expressed in transfected cells; host or cells: HEK293
T1 sequence (P29275 1-332): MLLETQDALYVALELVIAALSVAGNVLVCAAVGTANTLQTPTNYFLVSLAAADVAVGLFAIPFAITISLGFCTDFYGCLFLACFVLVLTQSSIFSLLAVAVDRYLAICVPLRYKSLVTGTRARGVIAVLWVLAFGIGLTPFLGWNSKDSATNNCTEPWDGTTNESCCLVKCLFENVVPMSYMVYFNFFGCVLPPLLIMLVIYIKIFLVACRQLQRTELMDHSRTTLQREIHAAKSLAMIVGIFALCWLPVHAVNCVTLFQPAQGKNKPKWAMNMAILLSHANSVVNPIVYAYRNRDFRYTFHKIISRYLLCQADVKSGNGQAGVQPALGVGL
Experimental: (§1) The functional activities of human A2A, A2B, A1 and A3 receptors were determined by quantification of cAMP, being the second messenger for adenosine receptors.
(§2) Cells were seeded into 384-well plates, forskolin, test compounds and agonists (CPA for A1- and IB-MECA for A3-receptor) were added. After 30 min incubation, HTRF reagents (cAMP dynamic 2, Cis Bio) were added and the cellular cAMP levels were determined using the ENVISION (Perkin Elmer) plate reader. Obtained raw data were normalized against the inhibitor control and the neural control (DMSO) and the normalized data were fitted using GeneData software.

[2] = molecular target: T2, human A1 receptor (Homo sapiens, UniProt P30542); assay: Functional A1 receptor activity, recombinant CHO cells, cAMP (HTRF), forskolin, agonist CPA; conditions: recombinant CHO cells, forskolin, agonist CPA, read-out: Functional A1 receptor activity, CHO, cAMP, IC50
T2 construct: expressed in transfected cells; host or cells: CHO
T2 sequence (P30542 1-326): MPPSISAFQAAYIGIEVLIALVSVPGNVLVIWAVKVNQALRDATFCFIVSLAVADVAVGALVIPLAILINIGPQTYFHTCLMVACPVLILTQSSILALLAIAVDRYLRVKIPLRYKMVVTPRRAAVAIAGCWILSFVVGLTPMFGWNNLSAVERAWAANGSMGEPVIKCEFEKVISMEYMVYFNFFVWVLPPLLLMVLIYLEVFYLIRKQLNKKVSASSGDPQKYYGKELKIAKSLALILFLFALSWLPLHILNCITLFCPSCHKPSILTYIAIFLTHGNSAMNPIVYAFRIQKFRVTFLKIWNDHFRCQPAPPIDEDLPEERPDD
Experimental: as §1
(§3) For human A1 and A3 receptors, recombinant CHO cells, expressing either A1 or A3-receptor, were used. As both receptors couple to Gi proteins, the assay protocol was adapted:
as §2

[3] = molecular target: T3, human A3 receptor (Homo sapiens, UniProt P0DMS8); assay: Functional A3 receptor activity, recombinant CHO cells, cAMP (HTRF), forskolin, agonist IB-MECA; conditions: recombinant CHO cells, forskolin, agonist IB-MECA, read-out: Functional A3 receptor activity, CHO, cAMP, IC50
T3 construct: expressed in transfected cells; host or cells: CHO
T3 sequence (P0DMS8 1-318): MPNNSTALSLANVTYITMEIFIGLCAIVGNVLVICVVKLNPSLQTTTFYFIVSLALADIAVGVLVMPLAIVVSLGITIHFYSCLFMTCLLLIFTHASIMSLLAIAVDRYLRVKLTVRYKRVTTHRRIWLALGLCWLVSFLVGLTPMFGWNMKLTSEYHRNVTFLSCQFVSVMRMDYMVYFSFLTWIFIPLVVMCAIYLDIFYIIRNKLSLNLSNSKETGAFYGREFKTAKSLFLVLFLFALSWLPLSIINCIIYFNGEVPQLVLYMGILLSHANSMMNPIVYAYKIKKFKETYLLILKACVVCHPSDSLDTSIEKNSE
Experimental: as §1, §3, §2

[4] = molecular target: human A2A receptor (Homo sapiens, UniProt P29274); assay: Functional A2A receptor activity, recombinant HEK293 cells, cAMP (HTRF), agonist NECA; parameters: expressed in transfected cells; host or cells: HEK293; conditions: read-out: Functional A2A receptor activity, HEK293, cAMP, IC50
Sequence of human A2A receptor (P29274 whole entry): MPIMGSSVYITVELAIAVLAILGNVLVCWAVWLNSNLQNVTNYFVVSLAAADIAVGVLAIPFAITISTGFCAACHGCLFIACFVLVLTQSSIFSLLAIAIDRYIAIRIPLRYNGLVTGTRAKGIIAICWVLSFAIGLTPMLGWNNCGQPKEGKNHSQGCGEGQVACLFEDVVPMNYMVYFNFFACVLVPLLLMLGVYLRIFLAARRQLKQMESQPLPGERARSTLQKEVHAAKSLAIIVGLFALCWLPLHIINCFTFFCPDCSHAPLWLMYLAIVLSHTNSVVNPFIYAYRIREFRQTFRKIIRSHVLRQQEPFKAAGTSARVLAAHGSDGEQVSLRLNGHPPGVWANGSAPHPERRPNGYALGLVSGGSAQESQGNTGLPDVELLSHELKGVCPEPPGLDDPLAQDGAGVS
Experimental: as §1, §2

IC50 [1] [nM] | IC50 [2] [nM] | IC50 [3] [nM] | IC50 [4] [nM] | IC50 ([2]; cAMP) [nM] | IC50 ([3]; cAMP) [nM] | Structure (SMILES)
< 100 | > 1000 | > 1000 | < 10 |  |  | COc1ncc(C2=CCOCC2)c2sc(NC(=O)N3CCC(N4C(=O)C=CC4=O)CC3)nc12 [Compound 88, N-[7-(3,6-dihydro-2H-pyran-4-yl)-4-methoxy-[1,3]thiazolo[4,5-c]pyridin-2-yl]-4-(2,5-dioxo-2,5-dihydro-1H-pyrrol-1-yl)piperidine-1-carboxamide]
< 10 | < 1000 | < 1000 | < 10 |  |  | COc1ncc(-c2ccccc2)c2sc(NC(=O)c3c[nH]cn3)nc12 [Compound 60, 1H-Imidazole-4-carboxylic acid (4-methoxy-7-phenyl-thiazolo[4,5-c]pyridin-2-yl)-amide]
< 1000 |  |  | < 10 | > 1000 | < 1000 | COc1cnc(N2CCOCC2)c2sc(NC(=O)N3CCOCC3)nc12 [drawing 193, reference compound]
< 100 | < 1000 | > 1000 | < 10 |  |  | COc1ncc(C2=CCOC2)c2sc(NC(=O)c3c[nH]cn3)nc12 [Compound 43, N-[7-(2,5-dihydrofuran-3-yl)-4-methoxy-[1,3]thiazolo[4,5-c]pyridin-2-yl]-1H-imidazole-4-carboxamide]
< 10 | < 1000 | > 1000 | < 10 |  |  | COc1ncc(C2=CCOCC2)c2sc(NC(=O)c3ccc(C(=O)N4CCN(C)CC4)cc3)nc12 [Compound 125, N-[7-(3,6-Dihydro-2H-pyran-4-yl)-4-methoxy-thiazolo[4,5-c]pyridin-2-yl]-4-(4-methyl-piperazine-1-carbonyl)-benzamide]
< 100 | < 1000 | > 1000 | < 10 |  |  | COc1ncc(C2=CCOCC2)c2sc(NC(=O)N3CCC(C(N)=O)CC3)nc12 [Compound 106, N1-[7-(3,6-dihydro-2H-pyran-4-yl)-4-methoxy-[1,3]thiazolo[4,5-c]pyridin-2-yl]piperidine-1,4-dicarboxamide]
< 100 | < 1000 | > 1000 | < 10 |  |  | COCCOCCn1cc(-c2cnc(OC)c3nc(NC(=O)N4CCC5(CCOCC5)C4)sc23)cn1 [Compound 103, 8-Oxa-2-aza-spiro[4.5]decane-2-carboxylic acid (4-methoxy-7-{1-[2-(2-methoxy-ethoxy)-ethyl]-1H-pyrazol-4-yl}-thiazolo[4,5-c]pyridin-2-yl)-amide]
< 100 | < 1000 | > 1000 | < 10 |  |  | COc1ncc(-c2ccc(C)o2)c2sc(NC(=O)N3CCC4(CCOCC4)C3)nc12 [Compound 114, 8-Oxa-2-aza-spiro[4.5]decane-2-carboxylic acid [4-methoxy-7-(5-methyl-furan-2-yl)-thiazolo[4,5-c]pyridin-2-yl]-amide]
< 100 | > 1000 | > 1000 | < 10 |  |  | COc1nc(F)c(C2CCOCC2)c2sc(NC(=O)N3CCC4(CCOC4)C3)nc12 (stereo not drawn) [Compound 33, N-[6-fluoro-4-methoxy-7-(oxan-4-yl)-[1,3]thiazolo[4,5-c]pyridin-2-yl]-2-oxa-7-azaspiro[4.4]nonane-7-carboxamide]
< 10 | < 1000 | > 1000 | < 10 |  |  | COCCNc1ncc(C(=O)Nc2nc3c(OC)ncc(C4CCOCC4)c3s2)s1 [Compound 17, N-[4-methoxy-7-(oxan-4-yl)-[1,3]thiazolo[4,5-c]pyridin-2-yl]-2-[(2-methoxyethyl)amino]-1,3-thiazole-5-carboxamide]
< 100 | > 1000 | > 1000 | < 10 |  |  | COc1ncc(-c2ccc(C)s2)c2sc(NC(=O)N3CCC4(CCOCC4)C3)nc12 [Compound 113, 8-Oxa-2-aza-spiro[4.5]decane-2-carboxylic acid [4-methoxy-7-(5-methyl-thiophen-2-yl)-thiazolo[4,5-c]pyridin-2-yl]-amide]
< 100 | > 1000 | > 1000 | < 100 |  |  | COc1ncc(C2=CCOC2)c2sc(NC(=O)N3CCC4(CCCOC4)C3)nc12 (stereo not drawn) [Compound 45, N-[7-(2,5-dihydrofuran-3-yl)-4-methoxy-[1,3]thiazolo[4,5-c]pyridin-2-yl]-7-oxa-2-azaspiro[4.5]decane-2-carboxamide]
< 100 | > 1000 | > 1000 | < 100 |  |  | COc1ncc(I)c2sc(NC(=O)N3CCC4(CCOCC4)C3)nc12 [Compound 171, 8-Oxa-2-aza-spiro[4.5]decane-2-carboxylic acid (7-iodo-4-methoxy-thiazolo[4,5-c]pyridin-2-yl)-amide]
< 10 | < 1000 | > 1000 | < 10 |  |  | COc1ncc(C2=CCOCC2)c2sc(NC(=O)c3c[nH]c(-c4ccccn4)n3)nc12 [Compound 162, 2-Pyridin-2-yl-1H-imidazole-4-carboxylic acid [7-(3,6-dihydro-2H-pyran-4-yl)-4-methoxy-thiazolo[4,5-c]pyridin-2-yl]-amide]
< 10 | > 1000 | > 1000 | < 10 |  |  | COc1ncc(-c2ccnc(N)c2)c2sc(NC(=O)N3CCC4(CCOCC4)C3)nc12 [Compound 124, 8-Oxa-2-aza-spiro[4.5]decane-2-carboxylic acid [7-(2-amino-pyridin-4-yl)-4-methoxy-thiazolo[4,5-c]pyridin-2-yl]-amide]
< 1000 |  |  | < 10 | > 1000 | > 1000 | COc1ccc(N2CCOCC2)c2sc(NC(=O)N3CCOCC3)nc12 [reference compound]
< 10 | < 1000 | < 1000 | < 10 |  |  | COc1ncc(C2=CCOCC2)c2sc(NC(=O)Nc3ccc(N4CCOC4=O)cc3)nc12 [Compound 95, 3-[7-(3,6-dihydro-2H-pyran-4-yl)-4-methoxy-[1,3]thiazolo[4,5-c]pyridin-2-yl]-1-[4-(2-oxo-1,3-oxazolidin-3-yl)phenyl]urea]
< 100 | > 1000 | > 1000 | < 100 |  |  | COc1ncc(C2=CC(=O)CC2)c2sc(NC(=O)N3CCC4(CCOCC4)C3)nc12 [Compound 40, 8-Oxa-2-aza-spiro[4.5]decane-2-carboxylic acid [4-methoxy-7-(3-oxo-cyclopent-1-enyl)-thiazolo[4,5-c]pyridin-2-yl]-amide]
< 10 | > 1000 | < 1000 | < 10 |  |  | COc1nc(F)c(N2CCOCC2)c2sc(NC(=O)C3CC3)nc12 [Compound 4, Cyclopropanecarboxylic acid (6-fluoro-4-methoxy-7-morpholin-4-yl-thiazolo[4,5-c]pyridin-2-yl)-amide]
< 1000 |  |  | < 10 | > 1000 | < 1000 | COc1ccc(N2CCOCC2)c2sc(NC(=O)N3CCCCC3)nc12 [drawing 191, reference compound]
< 10 | < 100 | < 1000 | < 10 |  |  | COc1ncc(C2=CCOCC2)c2sc(NC(=O)Nc3ccc(NC(C)=O)c(C)c3)nc12 [Compound 92, N-[4-({[7-(3,6-dihydro-2H-pyran-4-yl)-4-methoxy-[1,3]thiazolo[4,5-c]pyridin-2-yl]carbamoyl}amino)-2-methylphenyl]acetamide]
